In ChEMBL document CHEMBL4418492, “Myc modulators and uses thereof” (2018) one finds IC50 and Activity data, which are given here for 8 compounds.

Assay [1] concerns the target T1, Myc proto-oncogene protein (Homo sapiens, UniProt P01106). The assay is described as follows: Inhibition of Myc (unknown origin) expressed in HEK293T cells incubated for 16 hrs by firefly/renilla luciferase reporter gene assay. The format is cell-based. In general terms: A reporter such as luciferase makes a cellular process visible.
The next assay has as its system HeLa. The assay is described as follows: Cytotoxicity against human HeLa cells assessed as decrease in cell viability incubated for 72 hrs by CellTiter-Glo assay. Format: functional, cell-based. On the technique in general: In ATP-based viability assays light output follows the ATP content of the culture.
Assay [2] is described as follows: Cytotoxicity against human KLP1 cells assessed as decrease in cell viability incubated for 72 hrs by CellTiter-Glo assay. The format is functional, cell-based.
Assay [3] has as its target T1, Myc proto-oncogene protein. The assay is described as follows: Binding affinity to Myc in cell lysates (unknown origin) assessed as c-Myc levels at 5 uM incubated using compound 19 beads by Western blotting based pull down assay relative to control. The settings on record: Lysate. Format: subcellular. For orientation: In western blotting, separated proteins are transferred to a membrane and probed.

A further assay relates to NCI-H1975. The assay is described as follows: Cytotoxicity against human NCI-H1975 cells assessed as decrease in cell viability incubated for 72 hrs by CellTiter-Glo assay. The format is functional, cell-based. Particulars: NCI-H1975, 72 h; call rule not given here.
For assay [4], the target named is T1, Myc proto-oncogene protein. The assay can be described thus: Binding affinity to Myc in cell lysates (unknown origin) assessed as c-Myc levels at 1 uM incubated using compound 19 beads by Western blotting based pull down assay relative to control. The format is subcellular. Particulars: Lysate.
The nature of assay [5]: Cytotoxicity against human SNUC5 cells assessed as decrease in cell viability incubated for 72 hrs by CellTiter-Glo assay. Format: functional, cell-based.
For the next assay, the system named is NAMALVA. The assay is described as follows: Cytotoxicity against human NAMALWA cells assessed as decrease in cell viability incubated for 72 hrs by CellTiter-Glo assay. Format: functional, cell-based.
For assay [6], the target named is T1, Myc proto-oncogene protein. The assay can be described thus: Binding affinity to Myc in cell lysates (unknown origin) assessed as c-Myc levels at 5 uM incubated using compound 55 beads by Western blotting based pull down assay relative to control. Format: subcellular. The settings on record: Lysate.
The next assay relates to Lymphoma cell line. The assay is described as follows: Cytotoxicity against mouse E-mu-Myc lymphoma cells assessed as decrease in cell viability incubated for 72 hrs by CellTiter-Glo assay. Format: functional, cell-based.

T1 sequence (P01106 whole entry): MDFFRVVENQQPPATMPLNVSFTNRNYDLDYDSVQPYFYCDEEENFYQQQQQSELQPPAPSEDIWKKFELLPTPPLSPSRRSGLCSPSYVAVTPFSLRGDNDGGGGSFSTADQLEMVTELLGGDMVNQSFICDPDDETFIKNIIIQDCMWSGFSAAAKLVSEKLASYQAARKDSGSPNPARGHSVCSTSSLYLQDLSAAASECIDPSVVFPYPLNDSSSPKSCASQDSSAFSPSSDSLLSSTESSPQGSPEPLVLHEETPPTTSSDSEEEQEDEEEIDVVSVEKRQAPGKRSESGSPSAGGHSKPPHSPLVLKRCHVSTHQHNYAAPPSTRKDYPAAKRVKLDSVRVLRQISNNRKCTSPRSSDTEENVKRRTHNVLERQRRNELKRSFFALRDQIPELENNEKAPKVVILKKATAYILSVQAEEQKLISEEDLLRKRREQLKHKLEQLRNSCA

On to `O=C1NC(=O)C(=Cc2ccc(Sc3nc4ccccc4[nH]3)o2)C(=O)N1`, for which the IC50 (as a rule, the concentration that inhibits the measured activity by half) in [1] is on record as “Not Active”.
Still for that read-out and setting: in the case of `O=C(O)CN1C(=O)S/C(=C\c2ccc(Sc3nc4ccccc4[nH]3)o2)C1=O` it was “Not Active”.
The same measure, in the same setting: in the case of `O=C(O)c1ccc(Sc2nc3ccccc3[nH]2)o1` it was “Not Active”; in that of `O=C(c1ccc(Sc2nc3ccccc3[nH]2)o1)N1CCOCC1`, “Not Active”.
On to `COC(=O)c1ccc(Sc2nc3ccccc3[nH]2)o1`, for which the IC50 entry in assay [1] is recorded as “Not Active”.
In the case of `CC(C)N1C(=O)S/C(=C\c2ccc(Sc3nc4ccccc4[nH]3)o2)C1=O`, the IC50 in the assay with HeLa was 3.32 µM; in [2] it was 4.64 µM; in the assay on NCI-H1975 it was 2.71 to 24.9 µM; in assay [5] it was 11.7 µM; in the assay on NAMALVA, 17.3 to 21.1 µM. Further, the Activity was 73 to 84% in assay [3], 91% in assay [4] and 52% in [6].
In the case of `O=C(CCCC[C@@H]1SC[C@@H]2NC(=O)N[C@@H]21)NCCCN1C(=O)S/C(=C\c2ccc(Sc3nc4ccccc4[nH]3)o2)C1=O`, the IC50 with NCI-H1975 was > 50 µM.
In the case of `CC(C)N1C(=O)S/C(=C\c2ccc(-c3nc4ccccc4[nH]3)o2)C1=O`, the IC50 is 45.3 µM in the assay on NCI-H1975, > 50 µM in the assay with Lymphoma cell line and 20.1 µM with NAMALVA.
